In patent US11246929B2, “Combination of a protein kinase inhibitor and an additional chemotherapeutic agent” (Merck Patent GmbH, priority 2016, dated 2022):

Test system: MO59K (DNA-PK wild type)
Experiment: AlamarBlue viability assay
Assay type: cell-based, human
Conditions: compound incubation for 72 h
Method: Details of the assay protocol and material utilized are set forth below.
After 24 h incubation at 37° C.
At the end of the compound incubation period 20 μl AlamarBlue reagent was added per well and the 96-well plates were incubated further up to seven hours. Absorption was determined at 540 nm by using Tecan Reader Connect and Magelan 7.
0% effect=cells treated with DMSO; −100% effect=no cells

For `[2H]c1nc(C)nc([2H])c1-c1cc(NC[C@@H](C)c2cccc3c(C(N)=O)ccnc23)ncn1` [VX984, 8-[(1S)-2-[[6-(4,6-dideuterio-2-methylpyrimidin-5-yl)pyrimidin-4-yl]amino]-1-methylethyl]quinoline-4-carboxamide], the “potentiation of etoposide, Compound 1 in comparison to VX-984” value was “requires higher concentrations of etoposide to arrive at the same % effect”.
